The results in this text go back to publication PMC13252604, “First Generation Proteolysis Targeting Chimeras (PROTACs) for the Treatment of Progeria” (Advanced Science, 2026).

The target in this test is T1, progerin (Homo sapiens, UniProt P02545).
T1 construct: endogenous in cells; host or cells: HGADFN167 human HGPS fibroblasts (Progeria Research Foundation)
T1 sequence (P02545 1-614 isoform P02545-6): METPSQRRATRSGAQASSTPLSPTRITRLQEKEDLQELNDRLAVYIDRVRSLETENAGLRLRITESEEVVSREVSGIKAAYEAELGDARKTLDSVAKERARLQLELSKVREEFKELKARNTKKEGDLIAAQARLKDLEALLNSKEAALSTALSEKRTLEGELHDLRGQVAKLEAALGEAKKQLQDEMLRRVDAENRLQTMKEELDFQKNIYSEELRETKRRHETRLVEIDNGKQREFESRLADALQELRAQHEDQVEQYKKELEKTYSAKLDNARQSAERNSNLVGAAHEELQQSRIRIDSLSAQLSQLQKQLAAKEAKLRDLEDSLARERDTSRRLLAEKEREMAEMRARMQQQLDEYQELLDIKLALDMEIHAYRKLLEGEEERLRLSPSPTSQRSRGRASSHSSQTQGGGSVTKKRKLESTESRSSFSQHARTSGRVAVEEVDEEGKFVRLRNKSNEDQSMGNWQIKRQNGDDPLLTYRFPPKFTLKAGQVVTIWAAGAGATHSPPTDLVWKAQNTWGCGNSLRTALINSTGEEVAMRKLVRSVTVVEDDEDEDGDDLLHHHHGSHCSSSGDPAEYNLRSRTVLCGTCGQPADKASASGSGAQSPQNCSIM
Nature of the test: Progerin quantification, immunoblot in human Lmna^G608G/G608G fibroblasts. It counts as cell-based. The following applies: human Lmna^G608G/G608G patient-derived fibroblasts, vs vehicle. An excerpt:
FIGURE 6 (A) Representative cropped immunoblots and progerin quantification in human Lmna^G608G/G608G fibroblasts. MW, molecular weight (in kDa) markers. […] (B) PROTAC 2 increases cell proliferation (upper panels) and decreases the number of misshapen nuclei (lower panels). White arrows highlight selected misshapen nuclei. (C) PROTAC 2 decreases senescence‐associated β‐galactosidase (SA‐βgal) activity, interleukin (IL) 6, p16 and p21 senescent markers. Bar graphs show mean±sem of 2 (SA‐βgal and p21) or 3 (IL‐6 and p16) independent experiments performed in triplicate. (D) PROTAC 2 decreases phosphorylated histone 2AX (pH2AX) and increases trimethylated histone 3 (H3K9Me3) levels. (E) PROTAC 2 increases the oxygen consumption rate (OCR), ATP production and the number of healthy mitochondria in human progeroid cells. […] Data were analysed using one‐way ANOVA followed by Dunnett's post–hoc test vs vehicle (panel A) or vs G608G cells (panels B‐E). ^*, p < 0.05; ^**, p < 0.01; ^***, p < 0.001; ^****, p < 0.0001. […]
was saturated at 100 ppm. Relative STD effects were calculated by comparing the intensity of the signals in the STD-NMR spectrum with signal intensities of the reference spectrum (off-resonance). The STD signal with the highest intensity was set to 100%, a nd other STD signals were calculated accordingly. […]
Cell viability was assessed as previously described.[64] […]
On the technique in general: In western blotting, separated proteins are transferred to a membrane and probed.

In the case of `CC1(C)Oc2cc3oc(=O)ccc3cc2C[C@@H]1OC(=O)CCCCCNc1cccc2c1C(=O)N(C1CCC(=O)NC1=O)C2=O` (some centres unmarked) [compound 2], the “progerin levels (immunoblot quantification)” value was “the most potent in human cells”.
Next, `CC1(C)Oc2cc3oc(=O)ccc3cc2C[C@@H]1OC(=O)CCCCC(=O)Oc1ccc2c(c1)CCCN2C(=O)CCl` [compound 12]: “exhibited significant activity in human cells”.
